Experimental data from patent US5077292A, “(2-imidazolin-2-ylamino) tetrahydroquinoxalines and methods for using same” (priority 1989, dated 1991).

What was measured:
[1] = system: intraocular pressure; assay: effect on intraocular pressure, topical unilateral administration to rabbit eye; assay type: in vivo, New Zealand white rabbit; settings: 0.1% (W/V); for Difference In Intraocular Pressure, Initial Effect On Treated Eye / Difference In Intraocular Pressure, Maximum Effect on Treated Eye / Difference In Intraocular Pressure, Maximum Effect On Untreated Eye: single 50 micro liter drop, N.S. = not statistically significant; for Difference In Intraocular Pressure, Maximum Effect On Untreated Eye: untreated (contralateral) eye; for effect on intraocular pressure in the treated eye (in words): treated rabbit eye
Method: The three (3) tetrahydroquinoxaline derivatives produced in accordance with Examples 1 to 3 were tested to determine what effect, if any, these materials have on intraocular pressure.
Each of these materials was dissolved in distilled water at a concentration of 0.1% (W/V). Each of these solutions was administered topically and unilaterally to one eye of a drug-naive, unanesthetized New Zealand white rabbit in a single 50 micro liter drop. The contralateral eye received an equal volume of saline prior to determining the intraocular pressure after the mixture was administered. Also, approximately 10 micro liters of 0.5% (W/V) proparacaine (topical anesthetic) was applied to the corneas of each of the rabbits before determining intraocular pressure. As a control test, six (6) other drug-naive, unanesthetized New Zealand white rabbits were treated and tested as described above except that no tetrahydroquinoxaline derivative was included in the solutions administered to the eyes.
The intraocular pressure was determined in both eyes of each rabbit before and after the solutions were administered. Such intraocular pressure determinations were made in the conventional manner using conventional equipment.

[2] = system: Alpha 1 Adrenergic Receptors; assay: Rabbit Aorta: Alpha 1 Adrenergic Receptors; assay type: cell-based, albino rabbit; settings: rabbit aorta rings, 37° C., field stimulated; n = number of test runs
Method: (§1) The tetrahydroquinoxalines produced in Examples 1 to 3 were tested for activity using the following in vitro methods.
Rabbit Aorta: Alpha 1 Adrenergic Receptors
(§2) Thoracic aorta and saphenous vein specimens were obtained from albino rabbits that were killed by CO2 inhalation. The aorta and saphenous vein were each cut into 3 mm rings. Tissues were placed in Krebs-Hensleit solution of the following composition (millimolar): NaCl 119; KCl 4.7; MgSO4 1.5, KH2 PO4 1.2; CaCl2 2.5; NaHCO3 25 and glucose 11.0. The solution also contained cocaine (0.1 millimolar) to block neuronal uptake and EDTA (30 micromolar) and ascorbic acid (5 micromolar) to prevent oxidation of the tetrahydroquinoxaline being tested. Tissues were hung in 10 ml organ baths and tension was measured via Grass FT03 force-displacement transducers. Resting tension was 1 g and 2 g for the saphenous vein and aorta, respectively. The solution was gassed with 95% O2 and 5% CO2 and maintained at 37° C. Tissues were allowed to equilibrate for 2 hours before stimulation and the cumulative addition of the tetrahydroquinoxaline being treated was started. Tissue stimulation was performed as with the rabbit vas deferens, described above. The contractions of the tissue were recorded isometrically as for the rabbit vas deferens assay. Cumulative concentration response curves were obtained and the EC50 valve developed for each tetrahydroquinoxaline tested in a manner similar to that for the rabbit vas deferens assay.

[3] = target: T1, Alpha 2 Adrenergic Receptors (Oryctolagus cuniculus, UniProt Q5ZQK3); assay: Rabbit Vas Deferens: Alpha 2 Adrenergic Receptors; assay type: cell-based, New Zealand white rabbit; settings: 35° C., field stimulated, 50% reduction in response height, n = number of test runs
T1 construct: from tissue; host or cells: New Zealand white rabbit vas deferens, prostatic end, field stimulated
T1 sequence (Q5ZQK3 1-451): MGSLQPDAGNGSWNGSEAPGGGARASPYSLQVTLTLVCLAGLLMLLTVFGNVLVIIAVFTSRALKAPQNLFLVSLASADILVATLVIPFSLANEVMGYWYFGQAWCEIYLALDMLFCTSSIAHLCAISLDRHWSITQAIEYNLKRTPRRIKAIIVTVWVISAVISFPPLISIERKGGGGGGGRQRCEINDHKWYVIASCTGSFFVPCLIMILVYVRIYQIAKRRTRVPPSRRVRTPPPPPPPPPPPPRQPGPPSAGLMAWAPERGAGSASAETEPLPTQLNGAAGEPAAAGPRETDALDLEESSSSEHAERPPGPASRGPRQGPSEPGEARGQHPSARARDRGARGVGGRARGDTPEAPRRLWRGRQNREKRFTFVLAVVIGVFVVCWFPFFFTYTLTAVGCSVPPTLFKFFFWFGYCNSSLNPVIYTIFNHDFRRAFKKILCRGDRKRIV
Method: as §1
Rabbit Vas Deferens: Alpha 2 Adrenergic Receptors
New Zealand white rabbits (2-3 kg) were killed by CO2 inhalation and the vasa deferentia removed. The prostatic ends of the vasa deferentia (2-3 cm lengths) were mounted between platinum ring electrodes in 9 ml organ baths and bathed in Krebs bicarbonate solution of the following composition (millimolar): NaCl 118.0; KCl 4.7; CaCl2 2.5; MgSO4 1.2; KH2 PO4 1.2; glucose 11.0; NaHCO3 25.0; which solution was maintained at 35° C. and bubbled with 95% O2 and 5% CO2. The initial tension of the vas deferens was 0.5 g. The tissues were left to equilibrate for 30 minutes before stimulation was started. Vasa were then field stimulated (0.1 Hz, 2 ms pulse width at 90 mA) using a square wave stimulator (WPI A310 Accupulser with A385 stimulus). […] Cumulative concentration-response curves were obtained for the tetrahydroquinoxaline being tested with a 4 minute contact time at each concentration. The reduction in response height was measured and expressed as a percentage of the height of the response before the addition of tetrahydroquinxoaline. Concentration response curves for each of tetrahydroquinoxalines were plotted. The effective concentration required for a 50% reduction in response height, expressed as EC50, were obtained from these curves and are set forth below.

[4] = system: Alpha 3 Adrenergic Receptors; assay: Rabbit Saphenous Vein: Alpha 3 Adrenergic Receptors; assay type: cell-based, albino rabbit; settings: rabbit saphenous vein rings, 37° C., field stimulated; n = number of test runs
Method: as §1
Rabbit Saphenous Vein: Alpha 3 Adrenergic Receptors
as §2, with “Cumulative concentration response curves were obtained and the EC50 valve developed for each tetrahydroquinoxaline tested in a manner similar to that for the rabbit vas deferens assay.” left out

Compound	Difference In Intraocular Pressure, Initial Effect On Treated Eye [1]	Difference In Intraocular Pressure, Maximum Effect on Treated Eye [1] [%]	Difference In Intraocular Pressure, Maximum Effect On Untreated Eye [1]	effect on intraocular pressure in the treated eye (in words) [1]	effect on intraocular pressure in the untreated eye (in words) ([1]; untreated rabbit eye)	EC50 [2] [nM]	EC50 [3] [nM]	EC50 [4] [nM]
CC1CNc2c(ccc(NC3=NCCN3)c2Br)N1 (racemic) [Example 2, (±)2-Methyl-5-bromo-6-(2-imidazolin-2-ylamino)-1,2,3,4-tetrahydroquinoxaline]	N.S.	-15.1 ± 3.3	-8.6 ± 2.4%	effective to reduce intraocular pressure in the treated rabbit eye	reducing the intraocular pressure in the untreated rabbit eye	6750 ± 116	35.3 ± 3.9	581 ± 29
CC1CNc2ccc(NC3=NCCN3)c(Br)c2N1 (racemic) [Example 3, (±) 3-Methyl-5-bromo-6-(2-imidazolin-2-ylamino)-1,2,3,4-tetrahydroquinoxaline]	N.S.	-12.5 ± 2.2	N.S.	effective to reduce intraocular pressure in the treated rabbit eye	–	1060 ± 271	21.3 ± 3	–
